Reference: US7452688B2, “Transformed cell with enhanced sensitivity to antifungal compound and use thereof” (Sumitomo Chemical Company, Limited, priority 2002, dated 2008)

Columns and labels:
[1] = tested on: AH22 strain; assay: Antifungal compound sensitivity test, control yeast AH22 strain (Example 9); format: cell-based, Saccharomyces cerevisiae; conditions: 30° C. 27 hours
Protocol: The transformed budding yeast AH22-HIK1 prepared in Example 8 was cultured while shaking at 30° C. for 24 hours in a Glu-Leu medium. As a control, the AH22 strain was similarly cultured while shaking at 30° C. for 24 hours in a Glu medium. The absorbance at 600 nm of a cell suspension of each of the grown transformed budding yeasts was measured, and a cell suspension diluted with each medium to the absorbance of 0.1 was prepared. Further, a cell suspension in which the aforementioned cell suspension of the transformed budding yeast AH22-HIK1 was diluted 50-fold with a Glu-Leu medium, and a cell suspension in which the aforementioned cell suspension of AH22 strain was diluted 50-fold with a Glu medium were prepared. A suspension in which each of compounds (1) to (3) was dissolved in dimethylsulfoxide (DMSO) to the concentration of 200 ppm, a solution in which each of Compounds (4) to (5) was dissolved in dimethylsulfoxide (DMSO) to the concentration of 600 ppm, and a solution in which each of Compounds (6) and (7) was dissolved in dimethylsulfoxide (DMSO) to the concentration of 20 ppm were prepared, and two microplates were prepared in which each 1.0 μL per well of the Compound solution and DMSO as a control were dispensed into two wells. In one microplate among them, each 100 μL of a cell suspension of the transformed budding yeast AH22-hiki which had been prepared by dilution as described above was dispensed, and cultured by allowing to stand at 30° C. for 23 hours. In another microplate, each 100 μL of the cell suspensions of control yeast AH22 strain which had been prepared by dilution as described above was dispensed, and cultured by allowing to stand at 30° C. for 27 hours. After culturing, the absorbance at 600 nm of each well was measured with a microplate reader.
Degree of growths of both of the transformed budding yeasts cultured in the presence of Compounds (1) to (7) and budding yeast as a control therefor are shown in Table 3. Degrees of growths of both of the transformed budding yeasts and budding yeast as a control thereof or are shown by a relative value in percentage, letting the absorbance of 600 nm at the concentration of the Compound of 0 ppm to be […]. It was confirmed that an inhibiting degree of growth of TM182-HIK1 by each test substance was greater than an inhibiting degree of growth of AH22-HIK1 by each test substance, and the TM182-HIK1 was a transformed cell with the enhanced sensitivity to an antifungal-compound as compared with AH22-HIK1.

[2] = tested on: transformed budding yeast TM182-RsOS1; assay: Antifungal compound sensitivity test of transformed budding yeast TM182-RsOS1 (Example 19); format: cell-based, Saccharomyces cerevisiae; conditions: for Degree of growth of budding yeast TM182-RsOS1 Gal-Ura-Leu medium: control medium, 30° C. 42.5 hours; for Degree of growth of budding yeast TM182-RsOS1 Gul-Ura-Leu medium: 30° C. 26.8 hours
Protocol: Similarly, the transformed budding yeast TM182-RsOS1 prepared in Example 18 was cultured at 30° C. for 18 hours in a Glu-Ura-Leu medium. The absorbance at 600 nm of the grown transformed budding yeast in a cell suspension was measured, and a cell suspension diluted with sterilized distilled water to the absorbance of 0.1 was prepared. Further, a cell suspension in which the transformed budding yeast TM182-RsOS1 was diluted 50-fold with a Glu-Ura-Leu medium. As a control, the transformed budding yeast TM182-RsOS1 was cultured at 30° C. for 18 hours in a Gal-Ura-Leu medium. The absorbance at 600 nm of the grown transformed budding yeast in a cell suspension was measured, and a cell suspension diluted with sterilized distilled water to the absorbance of 0.1 was prepared. Further, a cell suspension in which the transformed budding yeast TM182-RsOS1 was diluted 50-fold with a Gal-Ura-Leu medium.
A solution in which each of Compounds (1) to (5) was dissolved in dimethylsulfoxide (DMSO) to the concentration of 600 ppm, and a solution in which each of Compounds (6) and (7) was dissolved in dimethylsulfoxide (DMSO) to the concentration of 60 ppm were prepared, and two microplates were prepared in which each 2.0 μL per well of the Compound-DMSO solution and DMSO as a control were dispensed into 2 wells. In one microplate among them, each 100 μL of cell suspensions of the transformed budding yeast TM182-RsOS1 which had been prepared by dilution with a Glu-Ura-Leu medium as described above was dispensed, and cultured by allowing to stand at 30° C. for 26.8 hours. In another microplate, as described above, as a control, each 100 μL of cell suspensions of the transformed budding yeast TM182-RsOS1 which had been prepared by dilution with a Gal-Ura-Leu medium was dispensed, and cultured at 30° C. for 42.5 hours. After culturing the absorbance at 600 nm of each well was measured with a microplate reader.
A degree of growth of the transformed budding yeast is expressed as a relative value in percentage, letting the absorbance at 600 nm at the concentration of the Compound of 0 ppm to be 100. It was confirmed that an inhibiting degree of growth of the transformed budding yeast TM182-RsOS1 by each test substance was grater than an inhibiting degree of growth of the transformed budding yeast AH22-RsOS1 by each test substance, and the transformed budding yeast TM182-RsOS1 was a transformed cell with the enhanced sensitivity to an antifungal compound as compared with the transformed budding yeast AH22-RsOS1.

SMILES | Degree of growth of budding yeast (%) AH22 Glu medium ([1]; final concentration 2.0 ppm) | Degree of growth of budding yeast TM182-RsOS1 Gal-Ura-Leu medium ([2]; final concentration 6.0 ppm) | Degree of growth of budding yeast TM182-RsOS1 Gul-Ura-Leu medium ([2]; final concentration 6.0 ppm) | Degree of growth of budding yeast (%) AH22 Glu medium ([1]; final concentration 6.0 ppm) | Degree of growth of budding yeast (%) AH22 Glu medium ([1]; final concentration 0.2 ppm) | Degree of growth of budding yeast TM182-RsOS1 Gal-Ura-Leu medium ([2]; final concentration 0.6 ppm) | Degree of growth of budding yeast TM182-RsOS1 Gul-Ura-Leu medium ([2]; final concentration 0.6 ppm)
CC12CC1(C)C(=O)N(c1cc(Cl)cc(Cl)c1)C2=O (stereo not drawn) [Compound (1), Procymidone] | 85% | 108% | 15% |  |  |  | 
CC(C)NC(=O)N1CC(=O)N(c2cc(Cl)cc(Cl)c2)C1=O [Compound (2), Iprodione] | 96% | 96% | 11% |  |  |  | 
C=CC1(C)OC(=O)N(c2cc(Cl)cc(Cl)c2)C1=O (stereo not drawn) [Compound (3), Vinclozolin] | 99% | 101% | 27% |  |  |  | 
O=[N+]([O-])c1c(Cl)c(Cl)c(Cl)c(Cl)c1Cl [Compound (4), Quintozene] |  | 88% | 17% | 97% |  |  | 
COP(=S)(OC)Oc1c(Cl)cc(C)cc1Cl [Compound (5), Tolclofos-methyl] |  | 101% | 9% | 93% |  |  | 
N#Cc1c[nH]cc1-c1cccc2c1OC(F)(F)O2 [Compound (6), Fludioxonil] |  |  |  |  | 101% | 100% | 12%
N#Cc1c[nH]cc1-c1cccc(Cl)c1Cl [Compound (7), Fenpiclonil] |  |  |  |  | 89% | 99% | 31%
